Measurements: ChEMBL document CHEMBL1155954, “A concise approach to 1,11-didechloro-6-methyl-4'-O-demethyl rebeccamycin and its binding to human serum albumin: fluorescence spectroscopy and molecular modeling method” (Bioorg Med Chem, 2008)

What was measured:
[1] = molecular target: T1, Albumin (Homo sapiens, UniProt P02768); assay: Binding affinity to human serum albumin at 289 kelvin by fluorescence quenching measurement in presence of [NO3]- ions; type: ADME; conditions: isolated protein
[2] = molecular target: T1, Albumin; assay: Binding affinity to human serum albumin at 289 kelvin by fluorescence quenching measurement in presence of Hg2+ ions; type: ADME; conditions: isolated protein
[3] = molecular target: T1, Albumin; assay: Binding affinity to human serum albumin at 289 kelvin by fluorescence quenching measurement; type: ADME; conditions: isolated protein
[4] = molecular target: T1, Albumin; assay: Binding affinity to human serum albumin at 289 kelvin by fluorescence quenching measurement in presence of [SO4]2- ions; type: ADME; conditions: isolated protein
[5] = molecular target: T1, Albumin; assay: Binding affinity to human serum albumin at 289 kelvin by fluorescence quenching measurement in presence of [CO3]2- ions; type: ADME; conditions: isolated protein
[6] = molecular target: T1, Albumin; assay: Binding affinity to human serum albumin at 289 kelvin by fluorescence quenching measurement in presence of Ni2+ ions; type: ADME; conditions: isolated protein
[7] = molecular target: T1, Albumin; assay: Binding affinity to human serum albumin at 289 kelvin by fluorescence quenching measurement in presence of Bi3+ ions; type: ADME; conditions: isolated protein
[8] = molecular target: T1, Albumin; assay: Binding affinity to human serum albumin at 289 kelvin by fluorescence quenching measurement in presence of Mg2+ ions; type: ADME; conditions: isolated protein
[9] = molecular target: T1, Albumin; assay: Binding affinity to human serum albumin at 289 kelvin by fluorescence quenching measurement in presence of Ca2+ ions; type: ADME; conditions: isolated protein
[10] = molecular target: T1, Albumin; assay: Binding affinity to human serum albumin at 289 kelvin by fluorescence quenching measurement in presence of Cd2+ ions; type: ADME; conditions: isolated protein
[11] = molecular target: T1, Albumin; assay: Binding affinity to human serum albumin at 289 kelvin by fluorescence quenching measurement in presence of [Sio3]2- ions; type: ADME; conditions: isolated protein
[12] = molecular target: T1, Albumin; assay: Binding affinity to human serum albumin at 289 kelvin by fluorescence quenching measurement in presence of Al3+ ions; type: ADME; conditions: isolated protein
[13] = molecular target: T1, Albumin; assay: Binding affinity to human serum albumin at 299 kelvin by fluorescence quenching measurement; type: ADME; conditions: isolated protein
[14] = molecular target: T1, Albumin; assay: Binding affinity to human serum albumin at 289 kelvin by fluorescence quenching measurement in presence of Pb2+ ions; type: ADME; conditions: isolated protein
[15] = molecular target: T1, Albumin; assay: Binding affinity to human serum albumin at 309 kelvin by fluorescence quenching measurement; type: ADME; conditions: isolated protein
[16] = molecular target: T1, Albumin; assay: Binding affinity to human serum albumin at 289 kelvin by fluorescence quenching measurement in presence of Zn2+ ions; type: ADME; conditions: isolated protein
[17] = molecular target: T1, Albumin; assay: Binding affinity to human serum albumin at 289 kelvin by fluorescence quenching measurement in presence of K+ ions; type: ADME; conditions: isolated protein
[18] = molecular target: T1, Albumin; assay: Binding affinity to human serum albumin at 289 kelvin by fluorescence quenching measurement in presence of F- ions; type: ADME; conditions: isolated protein
[19] = molecular target: T1, Albumin; assay: Binding affinity to human serum albumin at 289 kelvin by fluorescence quenching measurement in presence of Fe3+ ions; type: ADME; conditions: isolated protein
[20] = test system: K562; assay: Anticancer activity against human K562 cells; type: functional, cell-based

T1 sequence (P02768 whole entry): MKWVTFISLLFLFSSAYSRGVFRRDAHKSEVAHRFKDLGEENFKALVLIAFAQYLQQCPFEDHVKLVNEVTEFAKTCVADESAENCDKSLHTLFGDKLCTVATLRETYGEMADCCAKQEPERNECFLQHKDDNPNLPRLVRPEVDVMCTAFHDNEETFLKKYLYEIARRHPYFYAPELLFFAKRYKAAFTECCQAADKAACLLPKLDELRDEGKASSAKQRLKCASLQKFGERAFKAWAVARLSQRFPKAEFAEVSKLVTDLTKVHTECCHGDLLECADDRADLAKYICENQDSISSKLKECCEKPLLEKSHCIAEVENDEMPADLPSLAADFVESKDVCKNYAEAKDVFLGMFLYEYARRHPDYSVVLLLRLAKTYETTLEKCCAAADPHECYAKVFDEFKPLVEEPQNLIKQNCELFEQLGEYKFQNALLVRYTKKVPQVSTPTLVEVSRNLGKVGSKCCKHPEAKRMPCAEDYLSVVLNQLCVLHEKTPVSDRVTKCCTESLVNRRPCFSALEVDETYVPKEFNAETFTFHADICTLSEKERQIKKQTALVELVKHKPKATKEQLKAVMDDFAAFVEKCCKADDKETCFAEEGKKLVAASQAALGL

K [1] [×10⁶ L/mol]	K [2] [×10⁶ L/mol]	K [3] [L/mol]	K [4] [×10⁶ L/mol]	K [5] [×10⁶ L/mol]	K [6] [×10⁶ L/mol]	K [7] [×10⁶ L/mol]	K [8] [×10⁶ L/mol]	K [9] [×10⁶ L/mol]	K [10] [×10⁶ L/mol]	K [11] [×10⁶ L/mol]	K [12] [×10⁶ L/mol]	K [13] [L/mol]	K [14] [×10⁶ L/mol]	K [15] [L/mol]	K [16] [×10⁶ L/mol]	K [17] [×10⁶ L/mol]	K [18] [×10⁶ L/mol]	K [19] [×10⁶ L/mol]	IC50 [20] [µM]	SMILES
3.4	8.41	231000	4.33	3.48	5.32	7.01	4.76	7.17	4.56	6.68	3.93	195000	4.87	145000	7.12	8.9	8.78	3.48		CN1C(=O)c2c(c3c4ccccc4n([C@@H]4O[C@H](CO)[C@@H](O)[C@H](O)[C@H]4O)c3c3[nH]c4ccccc4c23)C1=O
																			4	CO[C@H]1[C@H](O)[C@@H](O)[C@H](n2c3c(Cl)cccc3c3c4c(c5c6cccc(Cl)c6[nH]c5c32)C(=O)NC4=O)O[C@@H]1CO [REBECCAMYCIN]
